Results: PMC11671585, “Deciphering the molecular basis of lipoprotein recognition and transport by LolCDE” (Signal Transduction and Targeted Therapy, 2024)

Biological target: T1, LolCDE (LolCD^E171QE) (Escherichia coli, UniProt P75957, E171Q)
T1 construct: gene lolD; full complex LolC, LolD dimer, LolE; 8xHis tag at C terminus of LolD; expressed in E. coli C43 (DE3); reconstituted in MSP1D1 nanodiscs with E. coli polar lipids; with Lipoprotein-releasing system transmembrane protein LolC; Lipoprotein-releasing system transmembrane protein LolE
Assay: cryo-EM structure, […] Å, nanodiscs
Format: binding
Details: endogenous ATP with Mg2+, no nucleotide added; both catalytic sites of the LolD dimer; catalytically inactive mutant; pH 7.8

T1 sequence (P75957 whole entry E171Q): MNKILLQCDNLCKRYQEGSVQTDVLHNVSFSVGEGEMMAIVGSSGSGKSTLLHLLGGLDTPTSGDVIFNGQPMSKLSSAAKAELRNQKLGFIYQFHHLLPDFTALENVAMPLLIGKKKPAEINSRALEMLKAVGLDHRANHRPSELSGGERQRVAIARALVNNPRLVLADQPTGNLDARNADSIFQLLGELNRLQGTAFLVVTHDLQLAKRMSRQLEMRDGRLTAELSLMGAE
T1 sequence (P75958 2-414, further chain): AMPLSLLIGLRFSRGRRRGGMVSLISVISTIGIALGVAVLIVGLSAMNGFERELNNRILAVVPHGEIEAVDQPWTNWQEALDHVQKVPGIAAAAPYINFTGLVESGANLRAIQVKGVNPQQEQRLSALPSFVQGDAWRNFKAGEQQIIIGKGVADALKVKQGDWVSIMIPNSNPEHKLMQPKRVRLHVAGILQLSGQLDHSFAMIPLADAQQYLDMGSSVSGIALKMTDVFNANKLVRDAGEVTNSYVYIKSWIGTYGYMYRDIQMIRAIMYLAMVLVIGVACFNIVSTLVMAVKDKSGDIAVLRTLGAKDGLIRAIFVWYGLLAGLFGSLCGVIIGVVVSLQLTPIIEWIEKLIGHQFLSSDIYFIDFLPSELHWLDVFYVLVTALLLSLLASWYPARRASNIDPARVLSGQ
T1 sequence (P0ADC3 whole entry, further chain): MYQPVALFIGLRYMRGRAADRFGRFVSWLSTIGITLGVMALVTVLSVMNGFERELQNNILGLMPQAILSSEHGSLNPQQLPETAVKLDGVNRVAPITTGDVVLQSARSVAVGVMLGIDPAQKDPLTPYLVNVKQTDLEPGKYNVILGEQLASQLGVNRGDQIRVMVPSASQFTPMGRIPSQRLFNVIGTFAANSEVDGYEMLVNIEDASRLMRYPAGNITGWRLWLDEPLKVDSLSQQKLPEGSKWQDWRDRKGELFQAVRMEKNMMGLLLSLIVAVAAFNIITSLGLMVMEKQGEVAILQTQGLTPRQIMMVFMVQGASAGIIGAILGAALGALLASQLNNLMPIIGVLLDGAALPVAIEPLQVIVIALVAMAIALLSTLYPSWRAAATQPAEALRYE

Nc1ncnc2c1ncn2[C@@H]1O[C@H](COP(=O)(O)OP(=O)(O)OP(=O)(O)O)[C@@H](O)[C@H]1O [ATP]
cryo-EM structure, 3.2 Å, nanodiscs: additional cryo-EM densities were observed in the catalytic pockets of LolD, which were identified as ATP
